Data from patent US20100041704A1, “DERMAL COMPOSITIONS OF SUBSTITUTED AMIDES AND THE USE THEREOF AS MEDICATION FOR PAIN AND PRURITUS” (priority 2007, published 2010).
Counter-ions that a name gives are not always drawn. One block for each molecule: values may come before it.

How the values were obtained:
[1] = saturation solubility in topical solvents/penetration enhancers; assay type: physicochemical
Experimental: Melting point ranges were determined with a capillary apparatus (Stuart) using a heating rate of 1° C./min. Moisture was measured using Karl Fischer titration (Schott TitroLine KF). Solubility was measured by adding an excess of solid to the solvent and allowing this suspension to equilibrate at 19-21° C. for at least 24 hours. […]
Solubility was measured by adding an excess of solid to the solvent and allowing this suspension to equilibrate at 19-21° C. for at least 24 hours. […]

[2] = tested on: nerve ligation model in the rat (L5 and L6 spinal roots of the sciatic nerve); test: nerve ligation model of neuropathic pain in the rat (tail flick, pinprick allodynia); assay type: in vivo; conditions: for activity in animal model of neuropathic pain: rat nerve ligation model
sciatic nerve = sciatic nerve block in the rat, duration by algesimeter; assay type: in vivo; conditions: for duration of sensory nerve block / local anesthesia: injection of 0.5% solution, N=10-12
[3] = tested on: guinea pigs (dermal anesthesia); test: potentiation study: dermal anesthesia in guinea pigs, pinprick methodology; assay type: in vivo; conditions: guinea pigs N=8
[4] = tested on: human leukocytes (buffy coat); test: inhibition of A23187-stimulated histamine release from human leukocytes; assay type: cell-based; conditions: A23187 5 μM, 20 min/37° C.
Experimental: In the present studies, histamine was the marker compound for algesic mediators that are released into the tissues of patients suffering from neuropathic pain. The inhibition of stimulated histamine release from human leukocytes (buffy coat) by test articles was studied. Leukocytes were obtained from healthy volunteers and histamine release was induced by incubation (20 min/37° C.) with the calcium ionophore A23187 (5 μM) in the presence or absence of a test article. Histamine was analyzed by enzyme-immuno assays, using commercially available kits and a microplate reader (MRX, Dynatech).

[5] = tested on: mice with diet-induced pruritus; test: pruritus model: mice fed diet low in Mg2+ and Zn2+, scratching; conditions: mouse, in vivo
[6] = saturation solubility in pentane (model propellant); assay type: physicochemical; conditions: base
Description: In addition to the solubility experiments shown above, the solubilities of bupivacaine and ropivacaine were also investigated using pentane since this is a low molecular weight hydrocarbon, commonly used to model a GRAS (generally recognized as safe) aerosol propellant such as butane.

[7] = tested on: New Zealand White rabbits (skin); test: dermal irritation studies; assay type: in vivo, rabbit; conditions: DMSO at lower concentrations (<90%) in combination with bupivacaine or ropivacaine
Experimental: Dermal irritation studies are performed in male and female New Zealand White rabbits (Harlan). This albino rabbit is recommended as the preferred species because of its size, skin permeability and extensive database. The number of animals being used in these studies is consistently increasing as new compositions are tested and previously tested compositions are being retested as references. Within 24 hours before the initiation of the test, fur is removed from the upper and lower dorsal trunks by clipping. Care is taken to avoid abrading the skin and only animals with healthy intact skin are being used. Histamine is used as the pruritic irritant. The compositions to be tested are applied to the skin of the animals for 60 min (±5 min). The new compositions, with or without bupivacaine 5 to 10 percent, are applied on 6-ply gauze pads (4.5 cm×4.5 cm) and held in place with Tegaderm® dressing for the entire exposure duration. After the exposure period, residual test article is removed with water or other appropriate solvent, without altering the existing response or the integrity of the epidermis. Prior to dosing and repeatedly post dosing, dermal irritation is scored for erythema/eschar and edema.

[8] = concentrations up to 0.075 percent (Mason L et al. 2004); cited from earlier work
[9] = ternary solvent mixtures with water as anti-solvent; assay type: physicochemical; conditions: 1 ml polyethylene glycol + 1 ml ethanol, presence of 0.6 ml water
[10] = in diisopropyl adipate, 19-21° C., at least 24 hours, HPLC
[11] = in ethanol, 19-21° C., at least 24 hours, HPLC
[12] = in hexylene glycol, 19-21° C., at least 24 hours, HPLC
[13] = in isopropyl alcohol, 19-21° C., at least 24 hours, HPLC
[14] = in isopropyl myristate, 19-21° C., at least 24 hours, HPLC
[15] = in propylene glycol, 19-21° C., at least 24 hours, HPLC

Solubility of bupivacaine (% w/w) [1, 10]: 2.7 % w/w
Solubility of bupivacaine (% w/w) [1, 11]: 16.5 % w/w
Solubility of bupivacaine (% w/w) [1, 12]: 8.0 % w/w
Solubility of bupivacaine (% w/w) [1, 13]: 8.9 % w/w
Solubility of bupivacaine (% w/w) [1, 14]: 1.6 % w/w
Solubility of bupivacaine (% w/w) [1, 15]: 2.1 % w/w
Structure (SMILES): CCCCN1CCCC[C@H]1C(=O)Nc1c(C)cccc1C (single isomer, unassigned) [Isomer free base]

Structure (SMILES): CCCCN1CCCCC1C(=O)Nc1c(C)cccc1C (stereo not shown) [bupivacaine, RS—N-(2,6-dimethylphenyl)-1-butylpiperidine-2-carboxamide]
duration of analgesic activity compared with lidocaine ([2]; neuropathic pain model, single administration): longer duration than that offered by lidocaine
pain relief after repeated administrations ([2]; repeated administrations): long-lasting (days not hours) pain relief
anti-allodynic effect (paw withdrawal, pinprick) ([2]; single systemic administration (0.5%), algesimeter set at 5 grams): prolonged anti-allodynic effect
analgesia, tail-flick test method ([2]; single systemic administration of bupivacaine (0.5%) three days after nerve ligation, tail flick in warm (140° F.) water): 100%
dose causing motor nerve blocks after injections (sciatic nerve; after injections, doses as low as): ≥ 0.1%
duration of dermal anesthesia ([3]; 5% in DMSO/water in a dermal patch, applied for 60 min, pinprick): 60 ± 5 min
inhibition of stimulated histamine release [4]: significant inhibitory activity
potency on histamine release compared with lidocaine [4]: more potent than lidocaine
antipruritic activity / safety and efficacy in animal model of pruritus [5]: antipruritic activity
Saturation solubility in pentane [6]: >0.1%

Structure (SMILES): CCCCN1CCCCC1C(=O)Nc1c(C)cccc1C (racemic) [Racemic free base]
Solubility of bupivacaine (% w/w) [1, 10]: 6.2 % w/w
Solubility of bupivacaine (% w/w) [1, 11]: 36.8 % w/w
Solubility of bupivacaine (% w/w) [1, 12]: 17.8 % w/w
Solubility of bupivacaine (% w/w) [1, 13]: 20.5 % w/w
Solubility of bupivacaine (% w/w) [1, 14]: 3.5 % w/w
Solubility of bupivacaine (% w/w) [1, 15]: 4.8 % w/w

Structure (SMILES): CCCCN1CCCCC1C(=O)Nc1c(C)cccc1C (stereo not shown) [bupivacaine HCl]
duration of sensory nerve block (sciatic nerve; injection of 0.25% solution, algesimeter (5 gram), rat): 70 ± 5 min
duration of sensory nerve block / local anesthesia (sciatic nerve; algesimeter (5 gram), rat): 99 ± 7 min

Structure (SMILES): CCCCN1CCCCC1C(=O)Nc1c(C)cccc1C.Cl.O (racemic) [Racemic HCl monohydrate]
Solubility of bupivacaine (% w/w) [1, 11]: 4.3 % w/w
Solubility of bupivacaine (% w/w) [1, 12]: 2.1 % w/w
Solubility of bupivacaine (% w/w) [1, 13]: 0.5 % w/w
Solubility of bupivacaine (% w/w) [1, 15]: 3.2 % w/w

Structure (SMILES): CCN(CC)CC(=O)Nc1c(C)cccc1C [lidocaine]
activity in animal model of neuropathic pain [2]: had activity
duration of sensory nerve block / local anesthesia (sciatic nerve; algesimeter (5 gram), rat): approximately 40 min

Structure (SMILES): C[S+](C)[O-] [DMSO, Dimethyl sulfoxide]
dermal irritation of DMSO with local anesthetic [7]: do not cause increased dermal irritation

Structure (SMILES): Cc1cccc(C)c1NC(=O)C1CCCCN1C (stereo not shown) [mepivacaine]
duration of sensory nerve block / local anesthesia (sciatic nerve; algesimeter (5 gram), rat): approximately 40 min

Structure (SMILES): COc1cc(CNC(=O)CCCC/C=C/C(C)C)ccc1O [capsaicin]
dermal anesthesia (in words) ([3]; capsaicin alone, low dose): too low to result in measurable dermal anesthesia
efficacy of dermal capsaicin [8]: only marginally effective

Solubility of bupivacaine (% w/w) ([1]; in ethanol, determined gravimetrically): 3.8-4.4^1 % w/w
Structure (SMILES): CCCCN1CCCC[C@H]1C(=O)Nc1c(C)cccc1C (single isomer, unassigned) [Isomer HCl monohydrate]

Structure (SMILES): CCCN1CCCCC1C(=O)Nc1c(C)cccc1C (stereo not shown) [ropivacaine, RS—N-(2,6-dimethylphenyl)-1-propylpiperidine-2-carboxamide]
activity in animal model of neuropathic pain [2]: had activity
antipruritic activity / safety and efficacy in animal model of pruritus [5]: antipruritic activity
Saturation solubility in pentane [6]: >0.1%

Solubility, % w/w ([1]; S-ropivacaine free base in diisopropyl adipate, 19-21° C., at least 24 hours): 1.7 % w/w
Solubility, % w/w ([1]; S-ropivacaine free base in ethanol, 19-21° C., at least 24 hours): 10.0 % w/w
Solubility, % w/w ([1]; S-ropivacaine free base in hexylene glycol, 19-21° C., at least 24 hours): 5.1 % w/w
Solubility, % w/w ([1]; S-ropivacaine free base in isopropyl alcohol, 19-21° C., at least 24 hours): 5.2 % w/w
Solubility, % w/w ([1]; S-ropivacaine free base in isopropyl myristate, 19-21° C., at least 24 hours): 0.9 % w/w
Solubility, % w/w ([1]; S-ropivacaine free base in propylene glycol, 19-21° C., at least 24 hours): 1.6 % w/w
solubility compared with bupivacaine free base ([1]; all solvents of Table 6): consistently lower
solubility in ternary solvent mixture with water as anti-solvent [9]: dramatically decreased
Structure (SMILES): CCCN1CCCC[C@H]1C(=O)Nc1c(C)cccc1C [S-ropivacaine free base]
